Results published in patent US5792622A, “Assay for chemicals” (priority 1995, dated 1998).
Entries after “also recorded” stand apart in the source; their conditions may differ. Like-named read-outs stand apart in the source and are kept apart here.

Columns and labels:
R. meliloti [1] = experiment: microbe, parasite or virus in culture; type: cell-based; settings: for absorbance at which the reduction stopped: A550, FIGS. 3 and 5
[2] = cited from earlier work; for Microtox IC50: Table 8
fish (trout fingerlings) = settings: Table 8, trout fingerlings; cited from earlier work
B. japonicum = type: cell-based
R. leguminosarum = type: cell-based
A. crystallopoites = type: cell-based
B. megaterium = type: cell-based
E. coli = type: cell-based
R. meliloti [3] = type: cell-based
S. lactis = type: cell-based
S. typhimurium = type: cell-based
Ps fluorescens = type: cell-based
R. sphaeroides = type: cell-based
[4] = rhizobium meliloti mtt reduction
[5] = read-out: toxic concentration in mM equivalent to ppm of Table 7
[6] = ratio of the inhibitory concentrations
[7] = Sinorhizobium meliloti, read-out: IC50 ppm
[8] = Sinorhizobium meliloti, read-out: Rhizobium/Tetrazolium IC50
[9] = Sinorhizobium meliloti, read-out: Rhizobium/Tetrazolium ppm
[10] = Sinorhizobium meliloti, Table 9, read-out: Rhizobium/Tetrazolium ppm
[11] = Sinorhizobium meliloti, Table 4, organic compounds, read-out: average (ppm), concentration giving 50% inhibition of dye reduction

ClC(Cl)Cl [Chloroform]
IC50 (amount per tube) (R. meliloti [1]): 6.10 mg/tube | IC50 volume (R. meliloti [1]): 827 µL | IC50 (R. meliloti [1]; [4]): 4132 ppm | average (ppm), concentration giving 50% inhibition of dye reduction (R. meliloti [1]; [4]): 2032

[Co] [Cobalt]
ppm (50% inhibition of dye reduction) (R. meliloti [1]; Table 7, minerals): 11.200 ppm

C[S+](C)[O-] [DMSO, dimethyl sulfoxide]
IC50 (R. meliloti [1]): 203.3 μl/tube | Microtox ppm ([2]; microtox bioluminescence): 3,506-102,995

[Fe] [iron]
inhibitory effect on the reduction of tetrazolium dye (R. meliloti [1]): no inhibitory effect

O=S(=O)([O-])[O-].[Mg+2] [Magnesium, Magnesium sulfate]
ppm (50% inhibition of dye reduction) (R. meliloti [1]; Table 7, minerals): 59.900 ppm | IC50 (R. meliloti [1]; [5]): 0.243 mM

[Cd] [Cadmium]
ppm (50% inhibition of dye reduction) (R. meliloti [1]; Table 7, minerals): 0.838 ppm | Rhizobium/Tetrazolium IC50 (R. meliloti [1]; Table 8): 0.210 ppm | sensitivity of Rhizobium/Tetrazolium assay compared with Microtox assay (R. meliloti [1]; [6]): at least an order of magnitude more sensitive for 4 compounds | Microtox IC50 [2]: 416 ppm | Fish LD50 (50% death of the fish) (fish (trout fingerlings)): 1.0-100 ppm

CCO [Ethanol]
IC50 (R. meliloti [1]; [7]): 75600 µg/mL | Microtox ppm ([2]; microtox bioluminescence): 23,090-55,388

c1ccccc1 [Benzene]
sensitivity of Rhizobium/Tetrazolium assay compared with Microtox assay (R. meliloti [1]): at least an order of magnitude more sensitive than the Rhizobium/Tetrazolium assay | IC50 (R. meliloti [1]; [8]): 712 µg/mL | IC50 (R. meliloti [1]; [9]): 712 to 2100 µg/mL

[Zn] [Zinc]
ppm (50% inhibition of dye reduction) (R. meliloti [1]; Table 7, minerals): 4.750 ppm | sensitivity of Rhizobium/Tetrazolium assay compared with Microtox assay (R. meliloti [1]; [6]): at least an order of magnitude more sensitive for 4 compounds | Microtox IC50 [2]: 476 ppm | Fish LD50 (50% death of the fish) (fish (trout fingerlings)): 0.24-7.20 ppm

COc1cc(-c2ccc(-n3nc(-c4ccccc4)n[n+]3-c3ccccc3)c(OC)c2)ccc1-n1nc(-c2ccccc2)n[n+]1-c1ccccc1 [TB, 3,3'-[3,3'-dimethoxy(1,1'-biphenyl)-4,4'-diyl]-bis(2,5-diphenyl-2H-tetrazolium)dichloride]
absorbance of reduced dye (B. japonicum; Table 1, incubation 7:48 hrs): 0.02 | absorbance of reduced dye (R. leguminosarum; Table 1, incubation 7:48 hrs): 0 | absorbance of reduced dye (A. crystallopoites; Table 1, incubation 2:00 hrs): 0.22 | absorbance of reduced dye (B. megaterium; Table 1, incubation 2:00 hrs): 0.17 | absorbance of reduced dye (E. coli; Table 1, incubation 1:40 hrs): 0.04 | absorbance of reduced dye (R. meliloti [3]; Table 1, incubation 2:00 hrs): 0.12 | absorbance of reduced dye (S. lactis; Table 1, incubation 9:57 hrs): 0.04 | absorbance of reduced dye (S. typhimurium; Table 1, incubation 2:00 hrs): 0.22 | absorbance of reduced dye (Ps fluorescens; Table 1, incubation 1:57 hrs): 0.05

[Cl-].[Na+] [NaCl, sodium chloride]
IC50 (R. meliloti [1]; FIG. 12, 10% NaCl solution): 60,689 ppm | IC50 volume (R. meliloti [1]; FIG. 12, 10% NaCl solution, 590 nm): 606.89 µL | absorbance reached (R. meliloti [1]; at 1000 μl of 10% NaCl solution, 590 nm): 0.1

CO [Methanol]
IC50 (R. meliloti [1]; Sinorhizobium meliloti, Table 6, solvents, read-out: IC50 ppm): 76500 µg/mL | IC50 (R. meliloti [1]; [10]): 68400 µg/mL | Microtox ppm ([2]; Table 9): 11,368-320400 ppm

O=c1ccc2[n+]([O-])c3ccc(O)cc3oc-2c1 [Resazurin, resazurin]
usefulness of dye reduction by E. coli (E. coli; protocol used with the tetrazolium dyes): did not yield useful results

ClC=C(Cl)Cl [trichloroethylene]
IC50 (R. meliloti [1]; [11]): 59.5 µg/mL

Oc1c(Cl)c(Cl)c(Cl)c(Cl)c1Cl [Pentachlorophenol, pentachlorophenol]
inhibition compared with trichlorophenol (R. meliloti [1]): an order of magnitude greater | absorbance at which the reduction stopped (R. meliloti [1]): ≤ 0.25 | IC50 (R. meliloti [1]; [11]): 0.206 µg/mL | IC50 (R. meliloti [1]; Sinorhizobium meliloti, Table 8, read-out: Rhizobium/Tetrazolium IC50): 0.143 µg/mL | sensitivity of Rhizobium/Tetrazolium assay compared with Microtox assay (R. meliloti [1]; [6]): at least an order of magnitude more sensitive for 4 compounds; also recorded: two orders of magnitude more sensitive | Microtox IC50 [2]: 2.46-2.71 ppm | Microtox ppm ([2]; Table 9): 2.46-2.71 ppm

O=C1NS(=O)(=O)c2ccccc21 [saccharin]
absorbance to which the reduction would eventually go (R. meliloti [1]): 0.0 | IC50 (R. meliloti [1]; Sinorhizobium meliloti): 477 µg/mL

O=C1C(Cl)=CC(=Nc2ccc(O)cc2)C=C1Cl [DCIP, 2,6-dichlorophenol-indophenol]
rate of reduction of the dye (R. meliloti [3]): reduced very slowly

ClC(Cl)=C(Cl)Cl [tetrachloroethylene]
IC50 (R. meliloti [1]; [11]): 34.8 µg/mL

c1ccc(-c2nn(-c3ccccc3)[n+](-c3ccccc3)n2)cc1 [TTC, 2,3,5-triphenyltetrazolium chloride]
absorbance of reduced dye (B. japonicum): 0.07 | absorbance of reduced dye (R. leguminosarum): 0 | absorbance of reduced dye (A. crystallopoites): 0.09 | absorbance of reduced dye (B. megaterium): 0.1 | absorbance of reduced dye (E. coli): 0.14 | absorbance of reduced dye (R. meliloti [3]): 0.09 | absorbance of reduced dye (S. lactis): 0.05 | absorbance of reduced dye (S. typhimurium): 0.04 | absorbance of reduced dye (Ps fluorescens): 0.01 | absorbance of reduced dye (R. sphaeroides): 0.12

[Se] [Selenium]
IC50 (R. meliloti [1]; Sinorhizobium meliloti, Table 7, minerals, read-out: ppm (50% inhibition of dye reduction)): 226 µg/mL

Mercury
inhibition of tetrazolium reduction (R. meliloti [1]): inhibited tetrazolium reduction completely | ppm (50% inhibition of dye reduction) (R. meliloti [1]; [4]): 0.0179 | Microtox ppm ([2]; microtox bioluminescence): 0.06

c1ccc(-c2nn(-c3ccccc3)[n+](-c3cccc4ccccc34)n2)cc1 [TV, 2,5-diphenyl-3-(α-napthyl)tetrazolium chloride]
absorbance of reduced dye (B. japonicum; Table 1, incubation 7:48 hrs): 0.14 | absorbance of reduced dye (R. leguminosarum; Table 1, incubation 7:48 hrs): 0 | absorbance of reduced dye (A. crystallopoites; Table 1, incubation 2:00 hrs): 0.08 | absorbance of reduced dye (B. megaterium; Table 1, incubation 2:00 hrs): 0.07 | absorbance of reduced dye (E. coli; Table 1, incubation 1:40 hrs): 0.03 | absorbance of reduced dye (R. meliloti [3]; Table 1, incubation 2:00 hrs): 0.08 | rate of reduction of the dye (R. meliloti [3]; in words): reduced more slowly than MTT | absorbance of reduced dye (S. lactis; Table 1, incubation 9:57 hrs): 0.04 | absorbance of reduced dye (S. typhimurium; Table 1, incubation 2:00 hrs): 0.04 | absorbance of reduced dye (Ps fluorescens; Table 1, incubation 1:57 hrs): 0.01 | absorbance of reduced dye (R. sphaeroides; Table 1, incubation 11:25 hrs): 0.12

[Ni] [Nickel]
Rhizobium/Tetrazolium ppm (R. meliloti [1]; [4]): 49.3 | Microtox ppm ([2]; microtox bioluminescence): 34

Oc1ccccc1 [Phenol]
sensitivity of Rhizobium/Tetrazolium assay compared with Microtox assay (R. meliloti [1]): at least an order of magnitude more sensitive than the Rhizobium/Tetrazolium assay | IC50 (R. meliloti [1]; [8]): 1220 µg/mL | IC50 (R. meliloti [1]; Sinorhizobium meliloti, read-out: average (ppm), concentration giving 50% inhibition of dye reduction): 1320 µg/mL | Microtox ppm ([2]; microtox bioluminescence): 623 | Fish LD50 (50% death of the fish) (fish (trout fingerlings)): 50-100 ppm

Cc1ccccc1 [Toluene]
IC50 (R. meliloti [1]; [8]): 590 µg/mL | IC50 (R. meliloti [1]; [9]): 30 to 502 µg/mL | sensitivity of Rhizobium/Tetrazolium assay compared with Microtox assay (R. meliloti [1]; [6]): at least an order of magnitude more sensitive than the Rhizobium/Tetrazolium assay | Microtox IC50 [2]: 33,833 ppm | Microtox ppm ([2]; Table 9): 18.0-33,833 ppm | Fish LD50 (50% death of the fish) (fish (trout fingerlings)): 23 ppm

[Pb] [Lead]
inhibitory effect on the reduction of tetrazolium dye (R. meliloti [1]): no inhibitory effect

COc1cc(-c2ccc(-n3nc(-c4ccccc4)n[n+]3-c3ccc([N+](=O)[O-])cc3)c(OC)c2)ccc1-n1nc(-c2ccccc2)n[n+]1-c1ccc([N+](=O)[O-])cc1 [NBT, 2,2'-di-nitrophenyl-5,5'-diphenyl-3,3'(-3,3'-dimethoxy-4,4'-diphenylene)ditetrazolium chloride]
absorbance of reduced dye (B. japonicum; Table 1, incubation 7:48 hrs): 0.01 | absorbance of reduced dye (R. leguminosarum; Table 1, incubation 7:48 hrs): 0 | absorbance of reduced dye (A. crystallopoites; Table 1, incubation 2:00 hrs): 0.27 | absorbance of reduced dye (B. megaterium; Table 1, incubation 2:00 hrs): 0.19 | absorbance of reduced dye (E. coli; Table 1, incubation 1:40 hrs): 0.1 | absorbance of reduced dye (R. meliloti [3]; Table 1, incubation 2:00 hrs): 0.16 | absorbance of reduced dye (S. lactis; Table 1, incubation 9:57 hrs): 0.06 | absorbance of reduced dye (S. typhimurium; Table 1, incubation 2:00 hrs): 0.24 | absorbance of reduced dye (Ps fluorescens; Table 1, incubation 1:57 hrs): 0.04 | absorbance of reduced dye (R. sphaeroides; Table 1, incubation 11:25 hrs): 0.16

CC(C)=O [Acetone]
IC50 (R. meliloti [1]; [7]): 71600 µg/mL | IC50 (R. meliloti [1]; [9]): 1640 µg/mL | Microtox ppm ([2]; microtox bioluminescence): 13305-29,109

O=[N+]([O-])c1ccc(O)c([N+](=O)[O-])c1 [Dinitrophenol, dinitrophenol]
absorbance at which the reduction stopped (R. meliloti [1]): 0.2 | IC50 (R. meliloti [1]; [11]): 574 µg/mL

[Ca+2].[Cl-].[Cl-] [Calcium, calcium chloride]
effect on the reaction (R. meliloti [1]; 19 ppm, with 500 μl of 5 mM EDTA (0.758 mM EDTA)): does not affect the reaction | ppm (50% inhibition of dye reduction) (R. meliloti [1]; Table 7, minerals): 5.230 ppm | level at which toxic (R. meliloti [1]; in the absence of a counteracting substance): 6 ppm | IC50 (R. meliloti [1]; [5]): 0.0471 mM

CCCCCCCCCCCCOS(=O)(=O)[O-].[Na+] [Sodium lauryl sulfate]
IC50 (R. meliloti [1]; [11]): 30.4 µg/mL | IC50 (R. meliloti [1]; [10]): 31 µg/mL | sensitivity of Rhizobium/Tetrazolium assay compared with Microtox assay (R. meliloti [1]; [6]): at least an order of magnitude more sensitive than the Rhizobium/Tetrazolium assay

[Mn+2] [Manganese]
ppm (50% inhibition of dye reduction) (R. meliloti [1]; [4]): 0.892
